The structures appear in SMILES notation.

The target of this assay is CDK2 (cyclin A or cyclin E complex) (Homo sapiens (Human), UniProt P24941). Put plainly: CDK2 in vitro kinase assay (either cyclin A or E-dependent), SPA with biotinylated Histone H1 peptide and 33P-ATP. Type of assay: biochemical. The conditions noted are these: Table 87.
Text: Assay: • Baculovirus Constructions: Cyclins A and E were cloned into pFASTBAC (Invitrogen) by PCR, with the addition of a GluTAG sequence (EYMPME) at the amino-terminal end to allow purification on anti-GluTAG affinity columns. The expressed proteins were approximately 46 kDa (cyclin E) and 50 kDa (cyclin A) in size. CDK2 was also cloned into pFASTBAC by PCR, with the addition of a haemaglutinin epitope tag at the carboxy-terminal end ([sequence]). The expressed protein was approximately 34 kDa in size. • Enzyme Production: Recombinant baculoviruses expressing cyclins A, E and CDK2 were infected into SF9 cells at a multiplicity of infection (MOI) of 5, for 48 hrs. Cells were harvested by centrifugation at 1000 RPM for 10 minutes. Cyclin-containing (E or A) pellets were combined with CDK2 containing cell pellets and lysed on ice for 30 minutes in five times the pellet volume of lysis buffer containing 50 mM Tris pH 8.0, 0.5% NP40, 1 mM DTT and protease/phosphatase inhibitors (Roche Diagnostics GmbH, Mannheim, Germany). Mixtures were stirred for 30-60 minutes to promote cyclin-CDK2 complex formation. Mixed lysates were then spun down at 15000 RPM for 10 minutes and the supernatant retained. 5 ml of anti-GluTAG beads (for one liter of SF9 cells) were then used to capture cyclin-CDK2 complexes. Bound beads were washed three times in lysis buffer. Proteins were competitively eluted with lysis buffer containing 100-200 ug/mL of the GluTAG peptide. Eluate was dialyzed overnight in 2 liters of kinase buffer containing 50 mM Tris pH 8.0, 1 mM DTT, 10 mM MgCl2, 100 uM sodium orthovanadate and 20% glycerol. Enzyme was stored in aliquots at −70° C. • In Vitro Kinase Assay: CDK2 kinase assays (either cyclin A or E-dependent) were performed in low protein binding 96-well plates (Corning Inc, Corning, N.Y.). Enzyme was diluted to a final concentration of 50 μg/ml in kinase buffer containing 50 mM Tris pH 8.0, 10 mM MgCl2, 1 mM DTT, and 0.1 mM sodium orthovanadate. The substrate used in these reactions was a biotinylated peptide derived from Histone H1 (from Amersham, UK). The substrate was thawed on ice and diluted to 2 μM in kinase buffer. Compounds were diluted in 10% DMSO to desirable concentrations. For each kinase reaction, 20 μl of the 50 μg/ml enzyme solution (1 μg of enzyme) and 20 μl of the 1 μM substrate solution were mixed, then combined with 10 μl of diluted compound in each well for testing. […] The reaction was allowed to run for 1 hour at room temperature. The reaction was stopped by adding 200 μl of stop buffer containing 0.1% Triton X-100, 1 mM ATP, 5 mM EDTA, and 5 mg/ml streptavidine coated SPA beads (from Amersham, UK) for 15 minutes. The SPA beads were then captured onto a 96-well GF/B filter plate (Packard/Perkin Elmer Life Sciences) using a Filtermate universal harvester (Packard/Perkin Elmer Life Sciences.). Non-specific signals were eliminated by washing the beads twice with 2M NaCl then twice with 2 M NaCl with 1% phosphoric acid. The radioactive signal was then measured using a TopCount 96 well liquid scintillation counter (from Packard/Perkin Elmer Life Sciences). • IC50 Determination: Dose-response curves were plotted from inhibition data generated, each in duplicate, from 8 point serial dilutions of inhibitory compounds. Concentration of compound was plotted against % kinase activity, calculated by CPM of treated samples divided by CPM of untreated samples. To generate IC50 values, the dose-response curves were then fitted to a standard sigmoidal curve and IC50 values were derived by nonlinear regression analysis. These kinase activities were generated by using cyclin A or cyclin E using the above-described assay.
The molecule `CC(C)(C)c1cc(NCc2ccncc2)n2ncc(Br)c2n1` [Example 12] registered a 50% inhibitory concentration (IC50) of 170 nM.
In the case of `N#Cc1cnn2c(NCc3ccncc3)cc(-c3ccccc3)nc12` [Example 16] it was 620 nM.
For `Clc1ccccc1-c1cc(NCc2cccnc2)n2ncc(Br)c2n1` [Example 8] the value was 3 nM.
Molecule `Fc1ccccc1-c1cc(NCc2cccnc2)n2ncc(Br)c2n1` [Example 4] showed an IC50 of 11 nM.
In the case of `Fc1ccccc1-c1cc(NCc2cccnc2)n2ncc(Cl)c2n1` [Example 5] it was 21 nM.
For `CC(C)c1cc(NCc2ccncc2)n2ncc(Br)c2n1` [Example 10] the value was 42 nM.

As a reminder, the IC50 is the midpoint of a concentration-inhibition curve. High values mean weaker potency, low ones greater potency.

The record behind these values is US8580782B2, “Substituted pyrazolo[1,5-a]pyrimidines as cyclin dependent kinase inhibitors” (Merck Sharp & Dohme Corp., priority 2002, dated 2013).
